From ChEMBL document CHEMBL1131703, “Azaindole derivatives with high affinity for the dopamine D4 receptor: synthesis, ligand binding studies and comparison of molecular electrostatic potential maps” (Bioorg Med Chem Lett, 1999)

Tests used:
D(2) dopamine receptor = D(2) dopamine receptor (Bos taurus, UniProt P20288); assay: Binding affinity was evaluated for the displacement of [3H]spiperone against bovine Dopamine receptor D2
D(4) dopamine receptor = molecular target: T1, D(4) dopamine receptor (Homo sapiens, UniProt P21917); assay: Binding affinity evaluated for the displacement of [3H]spiperone against human dopamine receptor D4
T1 sequence (P21917 whole entry): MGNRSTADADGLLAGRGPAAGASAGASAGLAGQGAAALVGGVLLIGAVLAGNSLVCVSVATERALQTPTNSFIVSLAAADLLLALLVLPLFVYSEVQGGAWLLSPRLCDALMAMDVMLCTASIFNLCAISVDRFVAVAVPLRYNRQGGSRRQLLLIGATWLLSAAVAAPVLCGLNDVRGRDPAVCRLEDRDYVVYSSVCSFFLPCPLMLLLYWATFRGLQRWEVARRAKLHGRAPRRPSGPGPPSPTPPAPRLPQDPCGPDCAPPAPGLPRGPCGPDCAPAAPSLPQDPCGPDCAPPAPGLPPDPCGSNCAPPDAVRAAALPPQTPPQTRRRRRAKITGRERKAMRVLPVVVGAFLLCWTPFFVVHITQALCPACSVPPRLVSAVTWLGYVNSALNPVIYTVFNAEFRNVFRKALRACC

D(1A) dopamine receptor = D(1A) dopamine receptor (Bos taurus, UniProt Q95136); assay: Binding affinity was evaluated for the displacement of [3H]-SCH- 23390 against bovine Dopamine receptor D1
D(3) dopamine receptor = D(3) dopamine receptor (Homo sapiens, UniProt P35462); assay: Binding affinity evaluated for the displacement of [3H]-spiperone against human dopamine receptor D3
Sequence of D(3) dopamine receptor (P35462 whole entry): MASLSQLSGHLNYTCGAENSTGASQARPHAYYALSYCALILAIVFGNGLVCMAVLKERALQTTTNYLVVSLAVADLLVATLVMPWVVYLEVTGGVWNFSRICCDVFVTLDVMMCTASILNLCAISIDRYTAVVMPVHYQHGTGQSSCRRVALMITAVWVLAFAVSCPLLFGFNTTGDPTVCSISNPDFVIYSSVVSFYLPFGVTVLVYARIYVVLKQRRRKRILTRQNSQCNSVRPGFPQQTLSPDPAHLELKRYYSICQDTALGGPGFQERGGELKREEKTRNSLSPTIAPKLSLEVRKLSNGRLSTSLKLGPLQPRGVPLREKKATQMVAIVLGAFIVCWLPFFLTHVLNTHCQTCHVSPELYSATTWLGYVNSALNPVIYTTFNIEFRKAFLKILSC

Sequence of D(1A) dopamine receptor (Q95136 whole entry): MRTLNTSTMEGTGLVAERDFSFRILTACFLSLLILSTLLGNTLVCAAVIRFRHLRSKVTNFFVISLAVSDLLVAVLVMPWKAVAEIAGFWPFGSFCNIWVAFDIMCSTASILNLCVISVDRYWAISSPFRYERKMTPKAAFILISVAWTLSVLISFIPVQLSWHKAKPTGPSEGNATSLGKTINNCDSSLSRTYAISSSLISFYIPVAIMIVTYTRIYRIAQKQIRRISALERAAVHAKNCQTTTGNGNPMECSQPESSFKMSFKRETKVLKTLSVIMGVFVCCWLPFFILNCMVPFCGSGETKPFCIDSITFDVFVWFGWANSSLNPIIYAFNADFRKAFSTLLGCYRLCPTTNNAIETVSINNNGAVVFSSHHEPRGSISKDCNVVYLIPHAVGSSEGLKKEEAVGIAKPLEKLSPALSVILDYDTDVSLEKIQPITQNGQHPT
Sequence of D(2) dopamine receptor (P20288 whole entry): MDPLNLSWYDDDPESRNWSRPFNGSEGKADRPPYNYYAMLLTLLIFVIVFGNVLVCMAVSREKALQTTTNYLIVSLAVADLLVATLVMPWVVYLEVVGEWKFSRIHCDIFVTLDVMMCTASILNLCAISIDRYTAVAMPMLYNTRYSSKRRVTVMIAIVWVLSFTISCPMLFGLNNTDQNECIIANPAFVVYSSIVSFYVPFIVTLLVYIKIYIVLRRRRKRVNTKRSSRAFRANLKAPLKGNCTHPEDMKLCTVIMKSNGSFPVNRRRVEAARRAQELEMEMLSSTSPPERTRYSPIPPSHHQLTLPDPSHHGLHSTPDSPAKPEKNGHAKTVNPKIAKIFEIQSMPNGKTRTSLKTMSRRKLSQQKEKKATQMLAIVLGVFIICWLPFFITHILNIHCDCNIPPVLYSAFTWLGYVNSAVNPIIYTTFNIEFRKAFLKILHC

Structure (SMILES)	Ki (D(2) dopamine receptor) [µM]	Ki (D(4) dopamine receptor) [µM]	Ki (D(1A) dopamine receptor) [µM]	Ki (D(3) dopamine receptor) [µM]
O=C(c1cnn2ccccc12)N1CCN(c2ccc(Cl)cc2)CC1	30	23	> 100	61
Ic1ccc(N2CCN(Cc3cnn4ccccc34)CC2)cc1	1.4	0.003	17	6.7
